Among the data in patent US10683297B2 (Sunshine Lake Pharma Co., Ltd., priority 2017, dated 2020) are half-life, CLint scaled and IC50 values, retold here.

Each structure is given as a SMILES string.

Data set [1] can be described thus: Compound stability in human liver microsomes. The note with it: for half-life at 5 μM: human liver microsomes 0.5 mg protein/mL, compound 5 μM, NADPH 1.0 mM, pH 7.4, 37° C., read-out: Human T1/2; for CLint scaled at 5 μM: liver microsomes, pH 7.4, in vivo CLint extrapolated from human liver microsome incubation. The data set is classed as in vitro ADME. The method, boiled down:
(§1)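 Compounds (5 μM) incubated at 37 °C with human or rat liver microsomes (0.5 mg protein/mL) and 1.0 mM NADPH in 100 mM phosphate buffer pH 7.4, 0.05% DMSO, in duplicate. Sampled 0–60 min, quantified by LC/MS/MS as % of time zero; CLint extrapolated.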

Data set [2] in a line: Compound stability in rat liver microsomes. The class given is in vitro ADME. The note with it: for CLint scaled at 5 μM: liver microsomes, pH 7.4, in vivo CLint extrapolated from rat liver microsome incubation; for half-life at 5 μM: rat liver microsomes 0.5 mg protein/mL, compound 5 μM, NADPH 1.0 mM, pH 7.4, 37° C., read-out: Rat T1/2. The gist of the method:
as §1

The target in the next data set is T1, JAK1 (h) (Homo sapiens, UniProt P23458).
T1 construct: purchased Millipore UK Ltd (assays performed there as a service)
Briefly: JAK1 (h) kinase assay. The note with it: [γ-33P-ATP] 10 μM or KM values; 40 minutes at room temperature. The data set is classed as biochemical. The method, boiled down: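 Radiometric filter-binding assay: human JAK1 incubated 40 min at room temperature in 20 mM Tris/HCl pH 7.5, 0.2 mM EDTA, 500 μM peptide substrate, 10 mM Mg acetate, with [γ-33P]ATP at 10 μM or KM. Reaction stopped with phosphoric acid; P30 filtermat scintillation counting.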

T1 sequence (P23458 whole entry): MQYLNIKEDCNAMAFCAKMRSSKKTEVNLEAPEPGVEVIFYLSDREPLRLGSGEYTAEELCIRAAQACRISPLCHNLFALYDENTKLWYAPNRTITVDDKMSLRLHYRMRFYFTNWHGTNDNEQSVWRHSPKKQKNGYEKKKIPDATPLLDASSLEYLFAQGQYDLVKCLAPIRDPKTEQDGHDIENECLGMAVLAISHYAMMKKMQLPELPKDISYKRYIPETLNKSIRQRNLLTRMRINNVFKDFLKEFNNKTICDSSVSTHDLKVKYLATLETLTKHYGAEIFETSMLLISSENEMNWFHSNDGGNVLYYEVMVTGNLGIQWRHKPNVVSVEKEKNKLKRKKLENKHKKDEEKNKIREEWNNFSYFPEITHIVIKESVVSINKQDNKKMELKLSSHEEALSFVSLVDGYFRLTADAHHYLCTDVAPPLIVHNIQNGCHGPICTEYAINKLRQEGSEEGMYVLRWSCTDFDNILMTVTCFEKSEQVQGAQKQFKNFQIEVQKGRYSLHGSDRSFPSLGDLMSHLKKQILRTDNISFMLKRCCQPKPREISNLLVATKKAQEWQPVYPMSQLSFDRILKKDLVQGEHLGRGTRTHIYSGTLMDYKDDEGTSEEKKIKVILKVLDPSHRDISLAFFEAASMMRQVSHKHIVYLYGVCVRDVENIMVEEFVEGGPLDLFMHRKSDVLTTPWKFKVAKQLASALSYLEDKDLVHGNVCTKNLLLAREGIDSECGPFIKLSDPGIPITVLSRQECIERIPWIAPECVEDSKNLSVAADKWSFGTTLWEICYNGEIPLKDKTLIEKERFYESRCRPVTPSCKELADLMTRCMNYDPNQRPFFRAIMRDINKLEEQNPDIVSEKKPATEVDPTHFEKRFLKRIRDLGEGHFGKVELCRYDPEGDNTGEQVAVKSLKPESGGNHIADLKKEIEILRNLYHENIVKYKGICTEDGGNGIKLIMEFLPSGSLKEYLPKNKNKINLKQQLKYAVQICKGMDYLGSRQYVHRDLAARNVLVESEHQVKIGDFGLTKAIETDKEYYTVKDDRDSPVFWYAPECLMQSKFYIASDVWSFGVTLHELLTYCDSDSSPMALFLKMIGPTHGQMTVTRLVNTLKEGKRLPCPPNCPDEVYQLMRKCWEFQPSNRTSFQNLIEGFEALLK

`CC(C)(O)Cc1cn2cc(Nc3ncc(Cl)c(NC4CCN(c5ccc(C#N)cn5)CC4)n3)ccc2n1` [Example 73, 6-(4-((5-chloro-2-((2-(2-hydroxy-2-methylpropyl)imidazo[1,2-a]pyridin-6-yl)amino)pyrimidin-4-yl)amino)piperidin-1-yl)nicotinonitrile]: in data set [1], the half-life at 5 μM is 0.7 h and the CLint scaled at 5 μM was 41.3 mL/min/kg. In addition, in data set [2], the intrinsic clearance (CLint scaled) at 5 μM was 214 mL/min/kg and the half-life at 5 μM was 0.193 h. Further, on JAK1 (h), the IC50 stood at 1 nM.

Take `CC(C)(O)Cc1nnc2cc(Nc3ncc(Cl)c(NC4CCN(c5ccc(C#N)cn5)CC4)n3)ccn12` [Example 74, 6-(4-((5-chloro-2-((3-(2-hydroxy-2-methylpropyl)-[1,2,4]triazolo[4,3-a]pyridin-7-yl)amino)pyrimidin-4-yl)amino)piperidin-1-yl)nicotinonitrile]: the half-life at 5 μM in data set [1] and in data set [2] was above 1 h each time. The compound further returned an IC50 on JAK1 (h) of 0.7 nM.

Take `CC(C)(O)Cc1nnc2cc(Nc3ncc(Cl)c(NC4CCN(c5ccc(C#N)nn5)CC4)n3)ccn12` [Example 75, 6-(4-((5-chloro-2-((3-(2-hydroxy-2-methylpropyl)-[1,2,4]triazolo[4,3-a]pyridin-7-yl)amino)pyrimidin-4-yl)amino)piperidin-1-yl)pyridazine-3-carbonitrile]: the half-life at 5 μM in data set [1] and in data set [2] was above 1 h in each case. On JAK1 (h), this compound yielded an IC50 of 1 nM.

As for `CC(C)(O)Cc1nc2cc(Nc3ncc(Cl)c(NC4CCN(c5ccc(C#N)nn5)CC4)n3)ccn2n1` [Example 77, 6-(4-((5-chloro-2-((2-(2-hydroxy-2-methylpropyl)-[1,2,4]triazolo[1,5-a]pyridin-7-yl)amino)pyrimidin-4-yl)amino)piperidin-1-yl)pyridazine-3-carbonitrile], the half-life at 5 μM in data set [1] is 4.28 h; in data set [2], 1.08 h. The CLint scaled at 5 μM in data set [1] is 6.8 mL/min/kg; in data set [2], 38.2 mL/min/kg. At JAK1 (h), this compound yielded an IC50 of 0.7 nM.

Consider `CC(C)(O)Cc1nc2cc(Nc3ncc(Cl)c(NC4CCN(c5ccc(C#N)cn5)CC4)n3)ccn2n1` [Example 78, 6-(4-((5-chloro-2-((2-(2-hydroxy-2-methylpropyl)-[1,2,4]triazolo[1,5-a]pyridin-7-yl)amino)pyrimidin-4-yl)amino)piperidin-1-yl)nicotinonitrile], for which, in data set [1], the half-life at 5 μM stood at 0.588 h and the CLint scaled at 5 μM is 49.3 mL/min/kg. In addition, in data set [2], the CLint scaled at 5 μM is 157 mL/min/kg and the half-life at 5 μM was 0.264 h. The IC50 against JAK1 (h) was 1 nM.

In the case of `CC(C)(O)Cc1nc2ccc(Nc3ncc(Cl)c(NC4CCN(c5ccc(C#N)nn5)CC4)n3)cn2n1` [Example 79, 6-(4-((5-chloro-2-((2-(2-hydroxy-2-methylpropyl)-[1,2,4]triazolo[1,5-a]pyridin-6-yl)amino)pyrimidin-4-yl)amino)piperidin-1-yl)pyridazine-3-carbonitrile], the half-life at 5 μM in data set [1] came out at 3.27 h; in data set [2], 8.09 h. The results for the CLint scaled at 5 μM in data set [1] and in data set [2] were 8.9 mL/min/kg and 5.1 mL/min/kg, respectively. On JAK1 (h), this compound yielded an IC50 of 1 nM.

What is called CLint scaled is a measure of how fast metabolising enzymes remove a compound, apart from limits set by blood flow. Broadly, the IC50 is the concentration that gives 50% inhibition.
